{
  "source": "patent US10864168B2",
  "about": "“Bioactive delivery vehicles” (The Regents of the University of California, priority 2014, dated 2020)",
  "key": {"[1]": {"tested_on": "L. starkeyi (51-55)", "assay": "Encapsulation of curcumin into cultured yeast, lipogenesis induced or suppressed", "format": "physicochemical, Lipomyces starkeyi", "settings": "vacuum infused, 35% ethanol", "description": "Increased lipid content both improves the relative encapsulation efficiency of hydrophobic bioactives and the oxidative stability of encapsulated bioactives. In this aim, three strains (Saccharomyces cerevisiae, Candida utilis, Phaffia rhodozyma) of yeast with high and low lipid content (high lipid ascomycete and Saccharomyces cerevisiae (low lipid)) are selected. Similarly, and two strains of algal cells are selected (Chlorella minutissima (UTEX 2341), Chlorella sorokiniana (UTEX 2805). The yeast and algal cells are cultured to achieve varying levels of lipid content by influencing the extracellular nutrients, e.g. in the case of algal cells, deprivation of nitrogen in extracellular media can shift the metabolism to generate lipids, with varying levels of nitrogen, intracellular lipid content is modulated. The intracellular lipids are extracted from freeze dried yeast and algal cells and measured using established gravimetric methods. To induce lipogenesis, 5 mL of the pre-culture are transferred into a 500 mL baffled conical flask with 95 mL of media A (50 g/L glucose, 1.5 g/L yeast extract, 0.5 g/L NH4Cl, 7.0 g/L KH2PO4, 2.5 g/L Na2HPO4.2H2O, 1.5 g/L MgSO4.7H2O, 0.08 g/L FeCl3.6H2O, 10.0 mg/L ZnSO4.7H2O, 0.07 mg/L MnSO4.H2O, 0.1 mg/L CuSO4, 0.063 mg/L Co(NO3)2) and closed with a foam cap. […]"}, "[2]": {"tested_on": "porcine mouth mucosa", "assay": "Curcumin release and diffusion in porcine mouth mucosa from yeast encapsulation system", "procedure": "Curcumin release and diffusion in porcine mouth mucosa from yeast encapsulation system was evaluated. Yeast microcapsules loaded with curcumin were topically applied on the porcine oral cavity tissue. After incubations for corresponding time periods, curcumin permeation was detected by imaging the tissue cross-sections. Both integrated pixel intensity and penetration distance from skin top surface were calculated. The results are depicted in FIG. 18. […] Furthermore, the yeast carriers can be engineered to act as a programmable microcarrier system that can provide controlled or triggered release of bioactive components in oral mucosa. This engineering can be accomplished by physical, chemical and/or genetic modification of the cell wall and cytoplasmic composition of yeast cells including modification of their lipid content."}, "[3]": {"tested_on": "inactivated yeast", "assay": "Encapsulation of bioactives into inactivated yeast cells (conventional diffusion, vacuum infusion, pressure)", "format": "physicochemical, Saccharomyces cerevisiae", "description": "Prior to encapsulation of bioactives, selected strains of both yeast and algal cells are inactivated with a chemical treatment. Chemical inactivation of yeast or algal cells stops the metabolic processes while preserving the structure and chemical composition of the cells. […] The concentration of ethanol is selected based on the results of the previous study. Briefly, 1 gm of yeast or algal cells pellet is suspended in the 35% ethanolic solution of the selected bioactive compound. […] We have determined the % ethanol to achieve sufficient encapsulation of the selected encapsulated bioactive compounds using both the vacuum and high pressure assisted encapsulation process. Yeast or algal cell samples suspended in the ethanolic solution with the bioactive compound are sealed in boilable vacuum bags (Prime Source) at 99% vacuum (Ultravac 250, Koch Equipment LLC). […] The sealed samples are covered with aluminum foil to prevent any photo-degradation of the bioactives and incubated at room temperature (25° C.) for 10 minutes. Samples are emptied into 50 mL centrifuge tubes, centrifuged at 2200 rpm for 10 minutes to pellet the cells and the pelleted cells are washed twice with ethanolic solution (35%) and then five times with excess water to remove unencapsulated bioactives. […] Samples are emptied into 50 mL centrifuge tubes, centrifuged to pellet the cells (2200 rpm for 10 minutes) and the pelleted cells are washed twice with ethanolic solution (35%) and then five times with excess water to remove unencapsulated bioactives. Briefly, yeast or algal samples in a 35% ethanolic solution of the selected bioactive compound are covered with a single layer of aluminum foil to prevent photolysis. Samples are then placed into a rotary incubator at 50° C. and 200 rpm for 24 hours. After removal from the incubator, cells are removed by centrifugation at 2000 rpm for 10 minutes. The supernatant is decanted to isolate the pelleted cells and the pelleted cells are washed as described above to remove unencapsulated bioactives. Cells are sonicated to disrupt the cellular structure. A methanol extraction is utilized to extract the encapsulated bioactives from the disrupted yeast or algal cells. 0.05 g of cells (wet basis) with encapsulated bioactives are sonicated to disrupt cellular structure and subsequently incubated with 1 mL methanol. Samples are then briefly vortexed and centrifuged at 14,000 rpm for 10 minutes. The concentration of bioactive compound dissolved in the organic phase is measured using UV-vis spectrophotometer. […] Measuring loading of these bioactive compounds in various emulsions and nanoparticles has been described. The encapsulation efficiency is determined as follows: [formula] where CE is the mass of extracted bioactive from the cells after encapsulation and CT is the amount of bioactive initially added to the cells. We have developed an innovative bioencapsulation process that provides rapid and efficient infusion of bioactives in isolated cells and lipid bodies. In this process, yeast or algal cells incubated in a solution containing bioactive were subjected to a vacuum (97% vacuum) or mild-high hydrostatic pressure (35-100 MPa) for ˜5-10 minutes. […] The results of these measurements were compared with the conventional process used for encapsulation of bioactive compounds in yeast cells."}, "[4]": {"tested_on": "E. coli (BL21)", "assay": "Encapsulation efficiency into bacteria by vacuum infusion", "format": "physicochemical", "settings": "vacuum infused, 35% ethanol"}, "[5]": {"tested_on": "L. casei (S1)", "assay": "Encapsulation efficiency into bacteria by vacuum infusion", "format": "physicochemical, Lactobacillus casei", "settings": "vacuum infused, 35% ethanol"}},
  "data": [
    {"smiles": "COc1cc(/C=C/C(=O)CC(=O)/C=C/c2ccc(O)c(OC)c2)ccc1O", "note": "[Curcumin, curcumin]", "values": [
      {"measurement": "Mass of Encapsulated Bioactive in Yeast", "setting": "[1]; lipogenesis Induced", "value": 0.559, "unit": "mg/g"},
      {"measurement": "Mass of Encapsulated Bioactive in Yeast", "setting": "[1]; lipogenesis Suppressed", "value": 0.466, "unit": "mg/g"},
      {"measurement": "integrity of the compound in tissue", "setting": "[2]; after 12 h", "value": "remained intact"},
      {"measurement": "diffusion into mouth mucosa tissue", "setting": "[2]; yeast microcapsules loaded with curcumin, topically applied", "value": "diffused into mouth mucosa tissue with a strong time-dependent manner"},
      {"measurement": "Mass of Encapsulated Bioactive in Yeast", "setting": "[3]; 100 mM PBS, pH = 6.5, Conventional Diffusion, saturated solution, 35% v/v ethanol", "value": 0.064, "unit": "mg/g"},
      {"measurement": "Mass of Encapsulated Bioactive in Yeast", "setting": "[3]; 100 mM PBS, pH = 6.5, HPP (200 MPa), saturated solution, 35% v/v ethanol", "value": 0.242, "unit": "mg/g"},
      {"measurement": "Mass of Encapsulated Bioactive in Yeast", "setting": "[3]; 100 mM PBS, pH = 6.5, Vacuum Infusion, saturated solution, 35% v/v ethanol", "value": 0.305, "unit": "mg/g"},
      {"measurement": "Mass of Encapsulated Bioactive in Yeast", "setting": "[3]; 2% Tween 20 in 100 mM Tris Buffer, pH = 8, Conventional Diffusion, saturated solution, 35% v/v ethanol", "value": 0.292, "unit": "mg/g"},
      {"measurement": "Mass of Encapsulated Bioactive in Yeast", "setting": "[3]; 2% Tween 20 in 100 mM Tris Buffer, pH = 8, HPP (200 MPa), saturated solution, 35% v/v ethanol", "value": 0.415, "unit": "mg/g"},
      {"measurement": "Mass of Encapsulated Bioactive in Yeast", "setting": "[3]; 2% Tween 20 in 100 mM Tris Buffer, pH = 8, Vacuum Infusion, saturated solution, 35% v/v ethanol", "value": 0.483, "unit": "mg/g"},
      {"measurement": "Mass of Encapsulated Bioactive in Yeast", "setting": "[3]; Commercial Baker's Yeast, vacuum infused, 35% ethanol", "value": 0.392, "unit": "mg/g"},
      {"measurement": "Mass of Encapsulated Bioactive in Yeast", "setting": "[3]; Conventional Diffusion, Single Loading", "value": 0.134, "unit": "mg/g"},
      {"measurement": "Mass of Encapsulated Bioactive in Yeast", "setting": "[3]; S. Cerevisiae (68-115), lipogenesis Induced, vacuum infused, 35% ethanol", "value": 0.260, "unit": "mg/g"},
      {"measurement": "Mass of Encapsulated Bioactive in Yeast", "setting": "[3]; S. Cerevisiae (68-115), lipogenesis Suppressed, vacuum infused, 35% ethanol", "value": 0.238, "unit": "mg/g"},
      {"measurement": "Mass of Encapsulated Bioactive in Yeast", "setting": "[3]; Vacuum, Dual Loading (curcumin and fisetin added together)", "value": 0.442, "unit": "mg/g"},
      {"measurement": "Mass of Encapsulated Bioactive in Bacteria", "setting": "[4]", "value": 0.489, "unit": "mg/g"},
      {"measurement": "Mass of Encapsulated Bioactive in Bacteria", "setting": "[5]", "value": 1.041, "unit": "mg/g"}
    ]}
  ]
}
